From ChEMBL document CHEMBL1201862, “PubChem BioAssay data set” (2004)
Activity calls are given as the source filed them.

What was measured:
[1] = HEp-2 cell cytotoxicity, dose response, cytotoxicity control for RSV inhibitor project, HTS (AID 2410); assay type: functional; settings: human respiratory syncytial virus
[2] = Luminescence Cell-Based Dose Confirmation HTS to Identify Inhibitors of Platelet Dense Granule Release. [Related pubchem assays: 1663 (Primary HTS), 1678 (Summary of Project)]; assay type: functional
[3] = target: Luciferin 4-monooxygenase (Photinus pyralis, UniProt P08659); experiment: firefly luciferase enzyme inhibitors, dose response, biochemical, luminescence (AID 1891)
Chain of Luciferin 4-monooxygenase (P08659 whole entry): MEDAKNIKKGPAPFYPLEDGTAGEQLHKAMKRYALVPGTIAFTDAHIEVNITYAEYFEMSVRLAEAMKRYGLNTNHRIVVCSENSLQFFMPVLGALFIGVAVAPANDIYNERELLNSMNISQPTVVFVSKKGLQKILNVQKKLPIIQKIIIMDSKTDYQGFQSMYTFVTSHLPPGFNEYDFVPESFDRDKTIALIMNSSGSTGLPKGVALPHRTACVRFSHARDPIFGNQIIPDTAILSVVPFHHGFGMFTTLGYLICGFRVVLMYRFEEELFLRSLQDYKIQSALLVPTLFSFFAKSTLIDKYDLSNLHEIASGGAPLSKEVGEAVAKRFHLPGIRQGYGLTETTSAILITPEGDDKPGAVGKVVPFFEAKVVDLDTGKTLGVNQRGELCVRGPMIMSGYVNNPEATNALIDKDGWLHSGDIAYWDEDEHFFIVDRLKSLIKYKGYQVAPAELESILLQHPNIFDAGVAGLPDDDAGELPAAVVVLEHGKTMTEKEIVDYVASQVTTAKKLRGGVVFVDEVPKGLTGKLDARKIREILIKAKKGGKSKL

[4] = Luminescence Cell-Based Dose Response HTS to Identify Inhibitors of 5'UTR Stem-Loop Driven Prion Protein mRNA Translation in H4 Neuroglioblastoma Cells. [Related pubchem assays: 1827 (Project Summary), 1813 (Primary HTS)]; assay type: functional
[5] = inhibitors of SNCA 5'UTR-driven reporter translation, confirmation, H4 neuroglioma cells, luminescence (AID 1988); assay type: functional, cell-based
[6] = inhibitors of firefly luciferase expression or activity, dose response, H4 neuroglioma cells, luminescence (AID 1990); assay type: functional, cell-based
Streptokinase A = target: T1, Streptokinase A (Streptococcus pyogenes serotype M1, UniProt P10520); experiment: S. pyogenes streptokinase expression inhibitors, potency, dose response, plasminogen activation absorbance, OD405 (AID 1914); assay type: functional, Streptococcus pyogenes M1 GAS;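 also: secreted streptokinase activity via plasminogen activation per viability signal from cell pellet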
T1 sequence (P10520 whole entry): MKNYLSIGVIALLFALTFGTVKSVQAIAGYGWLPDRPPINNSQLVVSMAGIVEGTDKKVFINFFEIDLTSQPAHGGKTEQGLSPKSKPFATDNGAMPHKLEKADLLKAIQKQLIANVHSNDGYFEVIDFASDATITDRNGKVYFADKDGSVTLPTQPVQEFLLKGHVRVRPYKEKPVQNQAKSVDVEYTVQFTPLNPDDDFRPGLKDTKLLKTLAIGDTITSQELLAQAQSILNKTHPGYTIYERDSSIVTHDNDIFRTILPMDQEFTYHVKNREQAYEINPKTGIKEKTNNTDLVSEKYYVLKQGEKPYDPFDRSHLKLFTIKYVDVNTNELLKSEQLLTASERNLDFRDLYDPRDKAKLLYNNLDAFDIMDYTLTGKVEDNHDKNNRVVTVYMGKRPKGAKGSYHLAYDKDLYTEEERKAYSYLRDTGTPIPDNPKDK

[7] = test system: Streptococcus sp. 'group A'; experiment: growth inhibition of control SK(-) GAS strain, dose response, counter-screen for streptokinase expression inhibitor project, luminescence, kanamycin, BacTiterGlo, confirmation (AID 1900); assay type: functional, organism-based
Streptococcus = experiment: Group A Streptococcus viability loss, dose response, counter-screen for streptokinase expression inhibitor project, luminescence, BacTiterGlo (AID 1915); assay type: functional, organism-based;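 also: potency for reduction of bacterial viability or growth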
Cytochrome P450 2C9 = Cytochrome P450 2C9 (Homo sapiens, UniProt P11712)
Chain of Cytochrome P450 2C9 (P11712 whole entry): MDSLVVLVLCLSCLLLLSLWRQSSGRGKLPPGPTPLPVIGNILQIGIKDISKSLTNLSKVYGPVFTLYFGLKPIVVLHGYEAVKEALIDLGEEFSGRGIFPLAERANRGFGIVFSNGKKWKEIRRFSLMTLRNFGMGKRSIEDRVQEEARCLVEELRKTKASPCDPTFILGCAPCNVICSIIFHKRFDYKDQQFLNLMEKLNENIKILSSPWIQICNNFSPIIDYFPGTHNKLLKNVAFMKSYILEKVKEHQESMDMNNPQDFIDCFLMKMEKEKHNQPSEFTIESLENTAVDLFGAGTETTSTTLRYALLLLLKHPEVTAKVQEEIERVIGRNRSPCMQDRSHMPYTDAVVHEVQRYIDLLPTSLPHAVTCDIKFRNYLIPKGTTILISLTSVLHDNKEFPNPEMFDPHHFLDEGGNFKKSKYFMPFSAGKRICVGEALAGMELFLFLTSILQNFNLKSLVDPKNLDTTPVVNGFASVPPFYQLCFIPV

Cytochrome P450 3A4 = Cytochrome P450 3A4 (Homo sapiens, UniProt P08684);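 also: CYP3A4 tested as one member of a cytochrome P450 panel screen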
Chain of Cytochrome P450 3A4 (P08684 whole entry): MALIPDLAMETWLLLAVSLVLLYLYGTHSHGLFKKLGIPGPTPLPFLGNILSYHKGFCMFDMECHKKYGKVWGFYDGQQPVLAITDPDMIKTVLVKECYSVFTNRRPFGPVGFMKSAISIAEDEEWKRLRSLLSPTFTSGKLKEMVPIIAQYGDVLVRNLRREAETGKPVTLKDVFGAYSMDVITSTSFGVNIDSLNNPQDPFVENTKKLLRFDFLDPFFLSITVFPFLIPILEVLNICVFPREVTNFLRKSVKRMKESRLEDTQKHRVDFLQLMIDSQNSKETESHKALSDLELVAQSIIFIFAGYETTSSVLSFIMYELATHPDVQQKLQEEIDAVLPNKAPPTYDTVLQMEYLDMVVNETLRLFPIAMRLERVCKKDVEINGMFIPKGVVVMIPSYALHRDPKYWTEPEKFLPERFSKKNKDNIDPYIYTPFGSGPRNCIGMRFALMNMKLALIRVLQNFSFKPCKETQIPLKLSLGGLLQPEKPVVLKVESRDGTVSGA

[8] = Luminescence Cell-Based Dose Retest to Confirm Inhibitors of Cancer Stem Cells. [Related pubchem assays (depositor defined):AID2717, AID2721]; assay type: functional; settings: Homo sapiens
[9] = inhibitors of intracellular T. cruzi replication, confirmation, NIH3T3 host cells, beta-gal luminescence (AID 2044); assay type: functional, cell-based;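 also: intracellular parasites grown in NIH/3T3 mouse fibroblasts as host cells; luminescent beta-galactosidase reporter signal from transgenic T. cruzi replicating inside host cells; inhibitors lower the luminescence signal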
[10] = cytotoxicity toward NIH3T3 fibroblasts, dose response, counter-screen, cell-based, ATP luminescence, mouse fibroblasts (AID 2010); assay type: functional;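 also: cells exposed to compound for about 90 hours before reading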
Cytochrome P450 2C19 = Cytochrome P450 2C19 (Homo sapiens, UniProt P33261); experiment: Cytochrome panel assay with activity outcomes. Panel member name: p450-cyp2c19 Compounds with AC50 equal or less than 10 uM are considered active; assay type: functional
Chain of Cytochrome P450 2C19 (P33261 whole entry): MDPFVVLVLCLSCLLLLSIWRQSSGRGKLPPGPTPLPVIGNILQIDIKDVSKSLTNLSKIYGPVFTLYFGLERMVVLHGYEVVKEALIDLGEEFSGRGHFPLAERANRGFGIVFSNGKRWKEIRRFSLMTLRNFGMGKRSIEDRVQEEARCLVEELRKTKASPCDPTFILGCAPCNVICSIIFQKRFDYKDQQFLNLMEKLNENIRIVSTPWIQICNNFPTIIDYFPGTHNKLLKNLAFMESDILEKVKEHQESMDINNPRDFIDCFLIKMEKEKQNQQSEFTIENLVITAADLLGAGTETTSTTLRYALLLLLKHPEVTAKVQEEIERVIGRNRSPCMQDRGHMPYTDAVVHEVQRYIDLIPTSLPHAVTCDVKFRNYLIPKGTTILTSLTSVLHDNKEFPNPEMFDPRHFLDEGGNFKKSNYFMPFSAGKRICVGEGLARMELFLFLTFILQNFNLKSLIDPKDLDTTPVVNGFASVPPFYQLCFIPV

INS1 = experiment: beta cell apoptosis inhibitors, cytokine rescue, dose response, luminescence, retest (AID 449756); assay type: functional, cell-based; settings: Rattus norvegicus;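 also: cell death triggered by IL-1 beta plus TNF-alpha plus IFN-gamma mixture; protective hits raise ATP signal compared with cytokine alone wells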

## O=[N+]([O-])c1ccc(S(=O)(=O)Nc2cccc(-c3ccc(N4CCCC4)nn3)c2)cc1
[1]
  CC50: 24.5 µM (active)

## Cc1cc(=O)n2nc(N3CCCC(C(=O)NCc4ccccc4)C3)sc2n1 (configuration not stated)
[2]
  EC50: > 112 µM (not active)
[3]
  EC50: > 112 µM (not active)

## O=C(c1cc2ccccc2o1)N(Cc1nnc(-c2ccccc2Cl)o1)C1CC1
[1]
  CC50: 25.9 µM (active)

## CCOC(=O)C1CCN(C(=O)c2oc3ccc(S(=O)(=O)N4CCCCCC4)cc3c2C)CC1
[1]
  CC50: 17.7 µM (active)

## O=C(COc1cccc(OC(F)F)c1)Nc1ccc(SC(F)F)cc1
[2]
  EC50: > 112 µM (not active)
[3]
  EC50: > 112 µM (not active)

## CCOc1ccc(S(=O)(=O)N2CCC(C(=O)NCc3cccnc3)CC2)cc1Cl
[4]
  EC50: > 120 µM (not active)
[5]
  EC50: > 120 µM (not active)
[6]
  EC50: 17.7 µM (active)

## Cc1ccc(S(=O)(=O)NCc2ccc(C(=O)NC3CC3)cc2)cc1
[2]
  EC50: 28.1 µM (active)
[3]
  EC50: > 112 µM (not active)

## COc1ccc(C(=O)NCCOc2cccc(OC)c2)cc1
[2]
  EC50: > 112 µM (not active)
[3]
  EC50: > 112 µM (not active)

## COC(=O)c1[nH]c2cc(OC)ccc2c1NC(=O)CN1CCOCC1
[2]
  EC50: > 112 µM (not active)
[3]
  EC50: > 112 µM (not active)

## O=C(CN(C(=O)Cn1nnc(-c2ccccc2F)n1)c1cccc2c1CCCC2)NCc1ccccc1
Streptokinase A
  EC50: > 150 µM (not active)
[7]
  EC50: 11.2 µM (active)
Streptococcus
  EC50: > 150 µM (not active)

## O=c1cc(O)cc(/C=C\c2ccc(O)c(O)c2)o1
Cytochrome P450 2C9
  AC50: 25.1 µM (inconclusive)
Cytochrome P450 3A4
  AC50: 3.16 µM (inconclusive)

## Cc1nc2ccccc2c(=O)n1NC(=O)C1CCC(C(C)(C)C)CC1 (configuration not stated)
[4]
  EC50: > 120 µM (not active)
[5]
  EC50: > 120 µM (not active)
[6]
  EC50: > 120 µM (not active)

## CCC(C)Nc1nc(N)c([N+](=O)[O-])c(Nc2ccccc2OC)n1 (configuration not stated)
[4]
  EC50: > 120 µM (not active)
[5]
  EC50: > 120 µM (not active)
[6]
  EC50: 13.5 µM (active)

## COc1cc(C)ccc1OCCCOc1ccccc1Cl
Cytochrome P450 2C9
  AC50: 12.6 µM (inconclusive)
Cytochrome P450 3A4
  AC50: 17.8 µM (inconclusive)

## Clc1ccccc1Cn1c(/C=C/c2ccco2)nc2ccccc21
[8]
  AC50: 2.86 µM (active)

## CCC(C)(C)c1ccc(Oc2cccc(C(=O)O)c2)cc1
Cytochrome P450 2C9
  AC50: 5.01 µM (inconclusive)

## COc1cc2c(cc1OC)C(C(=O)Nc1ccc3c(c1)OCCO3)C(c1cccnc1)N(C)C2=O (configuration not stated)
Cytochrome P450 2C9
  AC50: 11.2 µM (inconclusive)

## Cc1ccc(C)c(CN2CCCN(Cc3cc(C)ccc3C)S2(=O)=O)c1
Streptokinase A
  EC50: 19.7 µM (active)
[7]
  EC50: 19.8 µM (active)
Streptococcus
  EC50: > 150 µM (not active)

## Cn1cc(S(=O)(=O)N2CCCC2)cc1C(=O)NCCc1ccccc1
[2]
  EC50: > 112 µM (not active)
[3]
  EC50: > 112 µM (not active)

## O=C(Nc1ccccc1N1CCCC1)C1CCN(S(=O)(=O)c2ccccc2C(F)(F)F)CC1
[1]
  CC50: > 50 µM (active)

## CCOC(=O)Cn1c(=O)oc2cc(S(=O)(=O)NCCc3ccc(OCC)c(OCC)c3)ccc21
Cytochrome P450 2C9
  AC50: 0.00562 µM (inconclusive)

## O=C(c1cc(-c2ccc(Br)cc2)nc2ccccc12)N1CCN(c2ccccc2O)CC1
Streptokinase A
  EC50: 29.2 µM (active)
[7]
  EC50: 7.53 µM (active)
Streptococcus
  EC50: 25.4 µM (inconclusive)

## COCCn1c(=O)c(C)nc2cnc(Nc3cccc(OC)c3)nc21
Cytochrome P450 2C9
  AC50: 39.8 µM (inconclusive)

## O=[N+]([O-])c1ccc(O)c(-c2nc(-c3ccccc3)c(-c3cccs3)[nH]2)c1
[4]
  EC50: > 120 µM (not active)
[8]
  AC50: 0.662 µM (active)
[7]
  EC50: 1.23 µM (active)
[5]
  EC50: > 120 µM (not active)
[6]
  EC50: 18.2 µM (active)
Streptococcus
  EC50: 2.38 µM (active)

## Brc1cccc(OCCN2CCc3ccccc3C2)c1
[8]
  AC50: 24.9 µM (active)

## CN1CCN(C(=O)CCN2C(=O)/C(=C/c3cccc(Br)c3)SC2=S)CC1
[1]
  CC50: 18.8 µM (active)

## CCOC(=O)C(=O)NNc1ccc(Cl)cc1
[8]
  AC50: 0.79 µM (active)

## COc1ccc(OC)c(-n2c(SCC(N)=O)nnc2-c2c[nH]c3ccccc23)c1
[2]
  EC50: > 112 µM (not active)
[3]
  EC50: > 112 µM (not active)

## COc1ccc2cc1Oc1ccc(cc1)CC1c3c(cc(OC)c4c3Oc3cc5c(cc3O4)CCNC5C2)CCN1C (configuration not stated)
[4]
  EC50: 8.28 µM (active)
[5]
  EC50: 8.03 µM (active)
[9]
  EC50: 0.193 µM (active)
[6]
  EC50: > 120 µM (not active)
[10]
  EC50: 6.68 µM (active)

## CN1/C(=C\C(=O)Nc2ccc(Cl)cc2)C(C)(C)c2ccccc21
Streptokinase A
  EC50: > 150 µM (not active)
[7]
  EC50: 9.32 µM (active)
Streptococcus
  EC50: 11.5 µM (active)

## COc1ccc(OCCCC(=O)OC(C)C(=O)Nc2ccc(NC(C)=O)cc2)cc1 (configuration not stated)
[2]
  EC50: > 112 µM (not active)
[3]
  EC50: > 112 µM (not active)

## CCOC(=O)c1ccc(NC2c3ccccc3C(=O)N2c2cccnc2)cc1 (configuration not stated)
[4]
  EC50: > 120 µM (not active)
[5]
  EC50: 9.83 µM (active)
[6]
  EC50: 20 µM (active)

## CCc1c(C)nc2cc(-c3ccc(OC)c(OC)c3)nn2c1N1CCC(C)CC1
Streptokinase A
  EC50: 16.6 µM (active)
[7]
  EC50: 5.05 µM (active)
Streptococcus
  EC50: 14.7 µM (active)

## O=C(CN1CCN(c2cccc(C(F)(F)F)c2)CC1)Nc1cccc(C(F)(F)F)c1
[1]
  CC50: > 50 µM (active)

## CC1(C(=O)OCC(=O)Nc2nc(-c3ccc(F)c(F)c3)cs2)CC1(Cl)Cl (configuration not stated)
Streptokinase A
  EC50: 7.2 µM (active)
[7]
  EC50: 8.61 µM (active)
Streptococcus
  EC50: 11.8 µM (active)

## COc1ccccc1OCC(=O)Nc1c2c(nn1-c1ccc(F)cc1)CS(=O)(=O)C2
Streptokinase A
  EC50: > 150 µM (not active)
[7]
  EC50: > 150 µM (not active)
Streptococcus
  EC50: > 150 µM (not active)

## COc1ccc(C(=O)C2CCCN(Cc3cc(C)c(O)c(C)c3)C2)c(OC)c1 (configuration not stated)
[8]
  AC50: 0.502 µM (active)

## CC1=C(C(=O)OC2CCCCC2)C(c2ccc(C)o2)C2=C(O)CC(C)(C)CC2=N1 (configuration not stated)
[8]
  AC50: 1.38 µM (active)

## COc1ccc(C(=O)OCCOc2cccc(Cl)c2)cc1S(=O)(=O)N1CCOCC1
[2]
  EC50: > 112 µM (not active)
[3]
  EC50: > 112 µM (not active)

## CCc1ccc(C(=O)Nc2cccc(-c3nn[nH]n3)c2)s1
[2]
  EC50: > 112 µM (not active)
[3]
  EC50: 3.49 µM (active)

## CCCc1cc(C(=O)N2CCCC(N3CCN(c4ccccc4F)CC3)C2)n(C)n1 (configuration not stated)
[2]
  EC50: 21.6 µM (active)
[3]
  EC50: > 112 µM (not active)

## Cc1noc(C)c1CSc1nc2ccccc2nc1NS(=O)(=O)c1ccc(Cl)cc1
[8]
  AC50: 3.64 µM (active)
Streptokinase A
  EC50: 5.51 µM (active)
[7]
  EC50: 6.49 µM (active)
Streptococcus
  EC50: 13.7 µM (active)

## CN1CCc2[nH]nc(-c3n[nH]c4c3CN(C)CC4)c2C1
Cytochrome P450 2C19
  AC50: inconclusive

## COc1ccc(NS(=O)(=O)c2cc(NC(=O)c3ccc(O)nc3)ccc2N2CCCC2)cc1
[8]
  AC50: 0.952 µM (active)

## CCC/C(=C1/c2ccccc2C(=O)N1c1ccccc1)c1ccc2c(c1)OCCO2
[8]
  AC50: 3.85 µM (active)

## COC(=O)C(NS(=O)(=O)c1ccc(NC(C)=O)cc1)C(C)C (configuration not stated)
Cytochrome P450 2C9
  AC50: 1.58 µM (inconclusive)

## CCc1ccc(-c2cc(C(=O)N/N=C/c3c[nH]c4ccccc34)[nH]n2)cc1
[8]
  AC50: 2.97 µM (active)
Streptokinase A
  EC50: > 150 µM (not active)
[7]
  EC50: 7.37 µM (active)
Streptococcus
  EC50: 6.73 µM (active)

## CC(/C=N/NC(=O)c1nnn(-c2nonc2N)c1C(C)C)=C\c1ccccc1
[1]
  CC50: 39.5 µM (active)

## C/C(=N\NC(=O)COc1ccccc1-c1ccccc1)c1ccc(O)cc1O
[4]
  EC50: 9.87 µM (active)
[7]
  EC50: 3.01 µM (active)
[5]
  EC50: 9.9 µM (active)
[9]
  EC50: 1.24 µM (active)
[6]
  EC50: 11.1 µM (active)
INS1
  AC50: 2.48 µM (active)
[10]
  EC50: 4.94 µM (active)
Streptococcus
  EC50: 5.4 µM (active)

## O=C(N/N=C/c1ccc[nH]1)c1sc2ccccc2c1Cl
[8]
  AC50: 1.94 µM (active)
[9]
  EC50: 2.3 µM (active)
[10]
  EC50: > 30 µM (not active)

## C/C(=N\NC(=O)C1CC1)c1ccc(C(C)(C)C)cc1
[1]
  CC50: 34.3 µM (active)

## COc1ccc(/C=N\NC(=O)c2ccc(F)cc2)cc1COc1ccccc1C(N)=O
[2]
  EC50: > 112 µM (not active)
[3]
  EC50: > 112 µM (not active)
